Experimental data: ChEMBL document CHEMBL1150441
Values belong to the compound of their own block, whether it stands above or below them. Active and inactive are the calls of the source. No cut-off for these calls is given here.

What was measured:
Rattus norvegicus [1] = species on record: Rattus norvegicus; experiment: Effect on serum cholesterol level as tissue specific estrogen agonist assay in ovariectomized rat model: Not significant; format: functional, organism-based
[2] = target: T1, Estrogen receptor (Rattus norvegicus) (UniProt P06211+Q62986); experiment: Effect on serum cholesterol level as tissue specific estrogen agonist assay in ovariectomized rat model: significant decrease at <=10 mg/kg dose; format: functional, organism-based; conditions: filed as agonist
Rattus norvegicus [3] = experiment: Effect on uterine weight as tissue specific estrogen agonist assay in ovariectomized rat model at 0.1 mg/kg dose: Not significant; format: functional, organism-based; parameters: dose 0.1 mg/kg
MCF7 = experiment: Inhibition of MCF-7 cell proliferation stimulated by 10e-12 M estradiol: Not active; format: functional, cell-based; conditions: Homo sapiens
Rattus norvegicus [4] = species on record: Rattus norvegicus; experiment: Effect on uterine weight as tissue specific estrogen agonist assay in ovariectomized rat model: Not significant; format: functional, organism-based
[5] = target: T1, Estrogen receptor (Rattus norvegicus); experiment: Effect on uterine weight as tissue specific estrogen agonist assay in ovariectomized rat model: significant increase at <=10 mg/kg dose; format: functional, organism-based; conditions: filed as agonist
[6] = target: T1, Estrogen receptor (Rattus norvegicus); experiment: Effect on serum cholesterol level as tissue specific estrogen agonist assay in ovariectomized rat model: significant decrease at <10 mg/kg dose; format: functional, organism-based; conditions: filed as agonist

SMILES: Oc1ccc2c(C(O)c3ccc(OCCN4CCCCC4)cc3)c(C3CCCC3)sc2c1 (configuration not stated)
- Activity (Rattus norvegicus [1]): inactive

- Activity [2]: Agonist
SMILES: Oc1ccc2c(Cc3ccc(OCCN4CCCCC4)cc3)c(C3CCCC3)sc2c1
- Activity (Rattus norvegicus [3]): inactive

SMILES: O=C(c1ccc(OCCN2CCCCC2)cc1)c1c(C2CCCC2)sc2cc(O)ccc12
- Activity (Rattus norvegicus [3]): inactive

SMILES: C[C@]12CC[C@@H]3c4ccc(O)cc4CC[C@H]3[C@@H]1CC[C@@H]2O
- Dose (MCF7): inactive

SMILES: CCc1sc2cc(O)ccc2c1C(=O)c1ccc(OCCN2CCCCC2)cc1
- Activity (Rattus norvegicus [4]): inactive

SMILES: Cc1sc2cc(O)ccc2c1C(=O)c1ccc(OCCN2CCCCC2)cc1
- Activity (Rattus norvegicus [4]): inactive

SMILES: Oc1ccc2c(Cc3ccc(OCCN4CCCCC4)cc3)c([C@H]3CC[C@H](O)CC3)sc2c1
- Activity (Rattus norvegicus [3]): inactive

SMILES: Cc1sc2cc(O)ccc2c1Cc1ccc(OCCN2CCCCC2)cc1
- Activity (Rattus norvegicus [1]): inactive
- Activity (Rattus norvegicus [4]): inactive

SMILES: CC(C)c1sc2cc(O)ccc2c1C(=O)c1ccc(OCCN2CCCCC2)cc1
- Activity (Rattus norvegicus [3]): inactive

- Activity [2]: Agonist
- Activity [5]: Agonist
SMILES: CCc1sc2cc(O)ccc2c1Cc1ccc(OCCN2CCCCC2)cc1

- Activity [6]: Agonist
- Activity [5]: Agonist
SMILES: Oc1ccc2c(Cc3ccc(OCCN4CCCCC4)cc3)c(C3CCCCC3)sc2c1

- Activity [2]: Agonist
- Activity [5]: Agonist
SMILES: CC(C)c1sc2cc(O)ccc2c1Cc1ccc(OCCN2CCCCC2)cc1
